Measured values published in ChEMBL document CHEMBL1201862, “PubChem BioAssay data set” (2004).
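Test compounds were applied to cells in 96-well plates for 48 hours at 5 doses. At the GI50, growth is halved.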 The source made the active and inactive calls. Rule as the data show it: active = GI50 up to about 1.1 µM and inactive = higher.

Key:
Assay in all cases: DTP human tumour cell line panel, 48 h
UACC-62 = system: UACC-62
MDA-N = system: MDA-N
SK-MEL-5 = system: SK-MEL-5
SF-295 = system: SF-295
SW-620 = system: SW-620
PC-3 = system: PC-3
CCRF-CEM = system: CCRF-CEM
OVCAR-8 = system: OVCAR-8
M14 = system: M14
NCI/ADR-RES = system: NCI/ADR-RES
RXF 393 = system: RXF 393
ACHN = system: ACHN
RPMI-8226 = system: RPMI-8226
LOX IMVI = system: LOX IMVI
K562 = system: K562
SR = system: SR
KM12 = system: KM12
IGROV-1 = system: IGROV-1
OVCAR-4 = system: OVCAR-4
BT-549 = system: BT-549

Measured: GI50

Clc1ccc(NCNC2Nc3ccccc3N2)cc1Cl
inactive: UACC-62 2.26 µM | MDA-N 30.8 µM | SK-MEL-5 17.1 µM | SF-295 20.4 µM | SW-620 27.6 µM | PC-3 50.1 µM | CCRF-CEM 25 µM | OVCAR-8 13.1 µM | M14 83.4 µM | NCI/ADR-RES 83.4 µM | RXF 393 30.8 µM | ACHN 26.6 µM | RPMI-8226 26.4 µM | LOX IMVI 4.63 µM | K562 12.4 µM | SR 37.1 µM | KM12 11.9 µM

CCN(CC)C(=O)C1=C(C)NC(C)=C(C(=O)N(CC)CC)C1
inactive: UACC-62 > 100 µM | MDA-N > 100 µM | SK-MEL-5 > 100 µM | SF-295 > 100 µM | SW-620 > 100 µM | PC-3 > 100 µM | CCRF-CEM > 100 µM | M14 > 100 µM | IGROV-1 > 100 µM | OVCAR-4 > 100 µM | RXF 393 > 100 µM | ACHN > 100 µM | RPMI-8226 > 100 µM | LOX IMVI > 100 µM | K562 41.4 µM | SR > 100 µM | KM12 > 100 µM

CC1(C)C=[N+]([O-])C(C)(C)N1
inactive: UACC-62 > 100 µM | MDA-N > 100 µM | SK-MEL-5 > 100 µM | SF-295 > 100 µM | SW-620 > 100 µM | PC-3 > 100 µM | CCRF-CEM > 100 µM | OVCAR-8 > 100 µM | M14 > 100 µM | IGROV-1 > 100 µM | NCI/ADR-RES > 100 µM | OVCAR-4 > 100 µM | RXF 393 > 100 µM | ACHN > 100 µM | RPMI-8226 > 100 µM | LOX IMVI > 100 µM | K562 > 100 µM | SR > 100 µM | KM12 > 100 µM

[N-]=[N+]=NC(c1cn(C2CC(O)C(CO)O2)c(=O)[nH]c1=O)C(I)I (centres undefined)
inactive: UACC-62 > 100 µM | SK-MEL-5 > 100 µM | SF-295 > 100 µM | SW-620 > 100 µM | CCRF-CEM > 100 µM | OVCAR-8 > 100 µM | M14 > 100 µM | IGROV-1 87.7 µM | OVCAR-4 75.7 µM | RXF 393 > 100 µM | ACHN > 100 µM | RPMI-8226 > 100 µM | LOX IMVI > 100 µM | K562 > 100 µM | SR > 100 µM | KM12 > 100 µM

O=CC(O)C(O)C(O)COc1cc(CO)cc2c1C(=O)c1ccccc1C2=O (centres undefined)
inactive: UACC-62 > 95.1 µM | SK-MEL-5 79.4 µM | SF-295 > 100 µM | SW-620 > 100 µM | CCRF-CEM > 100 µM | OVCAR-8 > 100 µM | M14 > 100 µM | IGROV-1 > 100 µM | OVCAR-4 > 94.2 µM | RXF 393 > 100 µM | ACHN > 31.6 µM | RPMI-8226 > 100 µM | LOX IMVI 99.1 µM | K562 > 100 µM | SR > 88.3 µM | KM12 > 100 µM

COc1ccccc1-n1cnc2c1=NC(C)(C)NC=2C(N)=O
inactive: UACC-62 > 100 µM | MDA-N > 100 µM | SK-MEL-5 > 100 µM | SF-295 > 100 µM | SW-620 > 100 µM | PC-3 > 100 µM | CCRF-CEM > 100 µM | OVCAR-8 > 100 µM | M14 > 100 µM | IGROV-1 > 100 µM | NCI/ADR-RES > 100 µM | OVCAR-4 > 100 µM | RXF 393 > 100 µM | ACHN > 100 µM | RPMI-8226 > 100 µM | LOX IMVI > 100 µM | K562 > 100 µM | SR > 100 µM | KM12 > 100 µM

Cc1ccc(S(=O)(=O)NNS(C)(=O)=O)cc1
inactive: UACC-62 > 100 µM | SK-MEL-5 > 100 µM | SF-295 > 100 µM | SW-620 > 100 µM | CCRF-CEM > 100 µM | OVCAR-8 > 100 µM | M14 > 100 µM | IGROV-1 > 100 µM | OVCAR-4 > 100 µM | RXF 393 > 100 µM | ACHN > 100 µM | RPMI-8226 > 100 µM | LOX IMVI > 100 µM | K562 > 100 µM | SR > 100 µM | KM12 > 100 µM

C=C1C(=O)O[C@H]2C1C[C@H](O)/C(C)=C/CC[C@@]1(C)O[C@H]21 (some centres undefined)
inactive: UACC-62 10.9 µM | MDA-N 13.7 µM | SK-MEL-5 10.7 µM | SF-295 31.5 µM | SW-620 2.09 µM | CCRF-CEM 3.04 µM | OVCAR-8 18 µM | M14 10.4 µM | IGROV-1 14.8 µM | NCI/ADR-RES 14.6 µM | OVCAR-4 14.1 µM | RXF 393 15 µM | ACHN 8.38 µM | RPMI-8226 5.2 µM | LOX IMVI 9.29 µM | K562 8.53 µM | SR 6.04 µM | KM12 14.7 µM

CN(C)CCCNC(=O)c1cc(NC(=O)c2cc(NC(=O)[C@@H]3C[C@H]3C(=O)Nc3cc(C(=O)Nc4cc(C(=O)NCCCN(C)C)n(C)c4)n(C)c3)cn2C)cn1C
inactive: SK-MEL-5 > 100 µM | SF-295 > 100 µM | SW-620 > 100 µM | PC-3 > 100 µM | BT-549 > 100 µM | CCRF-CEM > 100 µM | OVCAR-8 > 100 µM | M14 > 100 µM | IGROV-1 > 100 µM | NCI/ADR-RES > 100 µM | OVCAR-4 > 100 µM | ACHN > 100 µM | RPMI-8226 > 100 µM | LOX IMVI > 100 µM | K562 > 100 µM | SR > 100 µM | KM12 > 100 µM

CCOC(=O)C1Oc2ccc([N+](=O)[O-])cc2C1(C)O (centres undefined)
inactive: UACC-62 > 100 µM | SK-MEL-5 > 100 µM | SF-295 > 100 µM | SW-620 > 100 µM | CCRF-CEM > 100 µM | OVCAR-8 > 100 µM | M14 > 100 µM | IGROV-1 > 100 µM | OVCAR-4 > 100 µM | RXF 393 > 100 µM | ACHN > 100 µM | RPMI-8226 > 100 µM | LOX IMVI > 100 µM | K562 > 100 µM | SR > 100 µM | KM12 > 100 µM

CCOC(OC1=C(C#N)CCC1)C(CC)[Se]c1ccccc1 (centres undefined)
inactive: UACC-62 19 µM | SK-MEL-5 15 µM | SF-295 16.6 µM | CCRF-CEM 15.6 µM | OVCAR-8 23.7 µM | M14 15.2 µM | IGROV-1 24.9 µM | OVCAR-4 16.1 µM | RXF 393 20.9 µM | ACHN 29.8 µM | RPMI-8226 17.9 µM | LOX IMVI 4.5 µM | K562 32.7 µM | SR 7.19 µM | KM12 64.4 µM

NC(=O)N/N=C1/c2ccccc2-n2nccc21
inactive: UACC-62 48.6 µM | MDA-N 43.1 µM | SK-MEL-5 82.8 µM | SF-295 > 100 µM | SW-620 > 100 µM | PC-3 > 100 µM | CCRF-CEM 37.6 µM | OVCAR-8 > 100 µM | M14 71.9 µM | IGROV-1 39.9 µM | NCI/ADR-RES > 100 µM | OVCAR-4 > 100 µM | RXF 393 25.9 µM | ACHN 43.5 µM | LOX IMVI 51.3 µM | K562 75.7 µM | SR 39 µM | KM12 > 100 µM
